Test results published in patent US12491159B2, “Controlled release formulations for the induction and proliferation of blood cells” (UNIVERSITY OF PITTSBURGH—OF THE COMMONWEALTH SYSTEM OF …, priority 2012, dated 2025).
No end group written: not given here.

Assays:
[1] = cited from earlier work
naïve CD4+CD25− cells = assay: Treg induction from naïve T cells by soluble factors (FoxP3 staining, flow cytometry); format: cell-based, mouse
[2] = test system: dendritic cells / FoxP3+ CD4+ T-cells; assay: VIP bioactivity assay: DC culture and CD4+ T cell chemotaxis; format: cell-based, mouse; conditions: LPS
Description: Three separate DC cultures with 24 individual wells were completed in accordance with Example XIII Both GM-CSF and IL-4 were used to culture the cells in the first two DC cell cultures, but for the third DC culture, the IL-4 was omitted to reduce its possible interference in steering immune cells toward a tolerogenic phenotype. Chemotaxis studies of CD4+ T-cells were performed and the percent of FoxP3+ T-cells which flowed through the transwells for each group was evaluated using flow. The data is presented as a normalized percent of FoxP3+ cells which were recruited by the DCs for the first DC when both IL-4 and GM-CSF were used to culture the DC precursors and when GM-CSF was used alone in the last DC culture. […] See, FIG. 15.
When the DC culture was repeated with the absence of IL-4 and addition of 5×GM-CSF, flow cytometry indicated slightly different trends. […]
In the first two experiments, both GM-CSF and IL-4 were added to DC media (modified RPMI 1640) of bone marrow cell cultures during media changes on Days 0, 3 and 6. […] Five different groups of four wells each were analyzed and received treatment. […]
CD4+ T-cells were isolated from the spleen and lymph nodes of a mouse using Dynal® beads following a standard protocol. […] T Cells that flowed through were analyzed for FoxP3+ expression using flow cytometry.

Compound: CC1=C(/C=C/C(C)=C/C=C/C(C)=C/C(=O)O)C(C)(C)CCC1 [RA, all-trans retinoic acid]
- toxicity upon local administration [1]: induce hypervitaminosis-A
- percent of CD4+ that express FoxP3 (naïve CD4+CD25− cells; RA 0.1 ng/ml, TGF-β 0 ng/ml): 2.71%
- percent of CD4+ that express FoxP3 (naïve CD4+CD25− cells; RA 0.1 ng/ml, TGF-β 0.5 ng/ml): 11.98%
- percent of CD4+ that express FoxP3 (naïve CD4+CD25− cells; RA 0.1 ng/ml, TGF-β 5 ng/ml): 35.18%
- percent of CD4+ that express FoxP3 (naïve CD4+CD25− cells; RA 0.1 ng/ml, TGF-β 20 ng/ml): 28.33%
- percent of CD4+ that express FoxP3 (naïve CD4+CD25− cells; RA 1 ng/ml, TGF-β 0 ng/ml): 2.64%
- percent of CD4+ that express FoxP3 (naïve CD4+CD25− cells; RA 1 ng/ml, TGF-β 0.5 ng/ml): 10.5%
- percent of CD4+ that express FoxP3 (naïve CD4+CD25− cells; RA 1 ng/ml, TGF-β 5 ng/ml): 44.71%
- percent of CD4+ that express FoxP3 (naïve CD4+CD25− cells; RA 1 ng/ml, TGF-β 20 ng/ml): 42.25%
- percent of CD4+ that express FoxP3 (naïve CD4+CD25− cells; RA 10 ng/ml, TGF-β 0 ng/ml): 2.27%
- percent of CD4+ that express FoxP3 (naïve CD4+CD25− cells; RA 10 ng/ml, TGF-β 0.5 ng/ml): 9.36%
- percent of CD4+ that express FoxP3 (naïve CD4+CD25− cells; RA 10 ng/ml, TGF-β 5 ng/ml): 42.22%
- percent of CD4+ that express FoxP3 (naïve CD4+CD25− cells; RA 10 ng/ml, TGF-β 20 ng/ml): 45.97%
- percent of CD4+ that express FoxP3 (naïve CD4+CD25− cells; RA 100 ng/ml, TGF-β 0 ng/ml): 2.23%
- percent of CD4+ that express FoxP3 (naïve CD4+CD25− cells; RA 100 ng/ml, TGF-β 0.5 ng/ml): 10.01%
- percent of CD4+ that express FoxP3 (naïve CD4+CD25− cells; RA 100 ng/ml, TGF-β 5 ng/ml): 50.71%
- percent of CD4+ that express FoxP3 (naïve CD4+CD25− cells; RA 100 ng/ml, TGF-β 20 ng/ml): 43.43%

Compound: CO[C@H]1C[C@@H]2CC[C@@H](C)[C@@](O)(O2)C(=O)C(=O)N2CCCC[C@H]2C(=O)O[C@H]([C@H](C)C[C@@H]2CC[C@@H](O)[C@H](OC)C2)CC(=O)[C@H](C)/C=C(\C)[C@@H](O)[C@@H](OC)C(=O)[C@H](C)C[C@H](C)/C=C/C=C/C=C/1C [Rapa, rapamycin]
- percent of CD4+ that express FoxP3 (naïve CD4+CD25− cells; Rapa 1 ng/ml, TGF-β 0 ng/ml): 1.91%
- percent of CD4+ that express FoxP3 (naïve CD4+CD25− cells; Rapa 1 ng/ml, TGF-β 0.1 ng/ml): 3.04%
- percent of CD4+ that express FoxP3 (naïve CD4+CD25− cells; Rapa 1 ng/ml, TGF-β 1 ng/ml): 8.89%
- percent of CD4+ that express FoxP3 (naïve CD4+CD25− cells; Rapa 1 ng/ml, TGF-β 5 ng/ml): 34.41%
- percent of CD4+ that express FoxP3 (naïve CD4+CD25− cells; Rapa 1 ng/ml, TGF-β 20 ng/ml): 76.22%
- percent of CD4+ that express FoxP3 (naïve CD4+CD25− cells; Rapa 10 ng/ml, TGF-β 0 ng/ml): 3.45%
- percent of CD4+ that express FoxP3 (naïve CD4+CD25− cells; Rapa 10 ng/ml, TGF-β 0.1 ng/ml): 5.31%
- percent of CD4+ that express FoxP3 (naïve CD4+CD25− cells; Rapa 10 ng/ml, TGF-β 1 ng/ml): 14.48%
- percent of CD4+ that express FoxP3 (naïve CD4+CD25− cells; Rapa 10 ng/ml, TGF-β 5 ng/ml): 51.08%
- percent of CD4+ that express FoxP3 (naïve CD4+CD25− cells; Rapa 10 ng/ml, TGF-β 20 ng/ml): 78.27%
- percent of CD4+ that express FoxP3 (naïve CD4+CD25− cells; Rapa 100 ng/ml, TGF-β 0 ng/ml): 4.13%
- percent of CD4+ that express FoxP3 (naïve CD4+CD25− cells; Rapa 100 ng/ml, TGF-β 0.1 ng/ml): 7.8%
- percent of CD4+ that express FoxP3 (naïve CD4+CD25− cells; Rapa 100 ng/ml, TGF-β 1 ng/ml): 22.05%
- percent of CD4+ that express FoxP3 (naïve CD4+CD25− cells; Rapa 100 ng/ml, TGF-β 5 ng/ml): 54.19%
- percent of CD4+ that express FoxP3 (naïve CD4+CD25− cells; Rapa 100 ng/ml, TGF-β 20 ng/ml): 80.36%

Compound: TGF-β: recombinant human TGF-β1 (CHO cell-derived, PeproTech), transforming growth factor β1
- percent of CD4+ that express FoxP3 (naïve CD4+CD25− cells; RA 0 ng/ml, TGF-β 0.5 ng/ml (Table 2)): 8.08%
- percent of CD4+ that express FoxP3 (naïve CD4+CD25− cells; RA 0 ng/ml, TGF-β 5 ng/ml (Table 2)): 28.52%
- percent of CD4+ that express FoxP3 (naïve CD4+CD25− cells; RA 0 ng/ml, TGF-β 20 ng/ml (Table 2)): 27.42%
- percent of CD4+ that express FoxP3 (naïve CD4+CD25− cells; Rapa 0 ng/ml, TGF-β 0.1 ng/ml (Table 1)): 0.61%
- percent of CD4+ that express FoxP3 (naïve CD4+CD25− cells; Rapa 0 ng/ml, TGF-β 1 ng/ml (Table 1)): 2.82%
- percent of CD4+ that express FoxP3 (naïve CD4+CD25− cells; Rapa 0 ng/ml, TGF-β 5 ng/ml (Table 1)): 18.16%
- percent of CD4+ that express FoxP3 (naïve CD4+CD25− cells; Rapa 0 ng/ml, TGF-β 20 ng/ml (Table 1)): 53.26%

Compound: VIP: Vasoactive intestinal peptide, a 28-amino acid neuropeptide (HSDAVFTDNYTRLRKQMAVKKYLNSILN; ends and bridges not checked; UniProt P01282 125-152, looked up)
- percentage of FoxP3+ cells recruited by treated DCs ([2]; DC precursors cultured with IL-4 and GM-CSF, versus LPS only or blank particle releasates): recruited a higher percentage of FoxP3+ cells
- percentage of FoxP3+ cells recruited by treated DCs ([2]; no IL-4, 5×GM-CSF, relative to LPS alone): recruited the same percentage of FoxP3+ cells
